According to US10670605B2, “Cysteine reactive probes and uses thereof” (The Scripps Research Institute, priority 2015, dated 2020):

Assays:
Experiment in all cases: Competitive isoTOP-ABPP, cell lysates
Assay type in all cases: binding
[1] = biological target: XPO1 C34 (O14980) (Homo sapiens, UniProt O14980)
[2] = biological target: ZNF217 C286 (O75362) (Homo sapiens, UniProt O75362)
[3] = biological target: UBE2L3 C86 (P68036) (Homo sapiens, UniProt P68036)
[4] = biological target: T1, IDH2 C308 (P48735) (Homo sapiens, UniProt P48735); conditions: for R value (DMSO/fragment): in vitro, MDA-MB-231; for isoTOP-ABPP ratio, P48735_C308: invitro, 231
T1 sequence (P48735 40-452): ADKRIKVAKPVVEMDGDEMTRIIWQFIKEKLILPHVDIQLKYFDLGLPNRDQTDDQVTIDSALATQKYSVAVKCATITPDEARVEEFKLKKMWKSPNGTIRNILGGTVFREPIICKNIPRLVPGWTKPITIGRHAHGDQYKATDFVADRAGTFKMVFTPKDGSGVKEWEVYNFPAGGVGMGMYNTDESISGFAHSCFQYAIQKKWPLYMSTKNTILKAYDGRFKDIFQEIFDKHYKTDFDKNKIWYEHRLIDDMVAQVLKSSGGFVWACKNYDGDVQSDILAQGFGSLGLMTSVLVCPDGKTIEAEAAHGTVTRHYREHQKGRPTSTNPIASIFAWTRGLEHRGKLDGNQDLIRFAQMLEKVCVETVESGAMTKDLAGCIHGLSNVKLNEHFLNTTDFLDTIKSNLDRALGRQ

[5] = biological target: T2, USP22 C171 (Q9UPT9) (Homo sapiens, UniProt Q9UPT9)
T2 sequence (Q9UPT9 1-525): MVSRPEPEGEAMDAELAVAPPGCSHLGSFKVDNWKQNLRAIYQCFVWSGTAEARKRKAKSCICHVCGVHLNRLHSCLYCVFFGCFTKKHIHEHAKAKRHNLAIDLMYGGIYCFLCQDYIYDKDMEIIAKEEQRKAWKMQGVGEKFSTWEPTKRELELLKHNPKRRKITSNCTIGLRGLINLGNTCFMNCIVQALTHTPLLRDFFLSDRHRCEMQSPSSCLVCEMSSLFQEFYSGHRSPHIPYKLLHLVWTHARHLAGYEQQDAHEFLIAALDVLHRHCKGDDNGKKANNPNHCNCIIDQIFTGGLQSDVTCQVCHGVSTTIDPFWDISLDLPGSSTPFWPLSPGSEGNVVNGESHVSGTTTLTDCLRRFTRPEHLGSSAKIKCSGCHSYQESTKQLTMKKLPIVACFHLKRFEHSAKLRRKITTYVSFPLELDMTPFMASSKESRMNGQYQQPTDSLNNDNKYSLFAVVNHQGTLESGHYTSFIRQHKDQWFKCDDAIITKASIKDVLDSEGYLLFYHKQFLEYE

[6] = biological target: T3, PCK2 C306 (Q16822) (Homo sapiens, UniProt Q16822); conditions: for isoTOP-ABPP ratio, Q16822_C306: 500 μM, invitro
T3 sequence (Q16822 33-640): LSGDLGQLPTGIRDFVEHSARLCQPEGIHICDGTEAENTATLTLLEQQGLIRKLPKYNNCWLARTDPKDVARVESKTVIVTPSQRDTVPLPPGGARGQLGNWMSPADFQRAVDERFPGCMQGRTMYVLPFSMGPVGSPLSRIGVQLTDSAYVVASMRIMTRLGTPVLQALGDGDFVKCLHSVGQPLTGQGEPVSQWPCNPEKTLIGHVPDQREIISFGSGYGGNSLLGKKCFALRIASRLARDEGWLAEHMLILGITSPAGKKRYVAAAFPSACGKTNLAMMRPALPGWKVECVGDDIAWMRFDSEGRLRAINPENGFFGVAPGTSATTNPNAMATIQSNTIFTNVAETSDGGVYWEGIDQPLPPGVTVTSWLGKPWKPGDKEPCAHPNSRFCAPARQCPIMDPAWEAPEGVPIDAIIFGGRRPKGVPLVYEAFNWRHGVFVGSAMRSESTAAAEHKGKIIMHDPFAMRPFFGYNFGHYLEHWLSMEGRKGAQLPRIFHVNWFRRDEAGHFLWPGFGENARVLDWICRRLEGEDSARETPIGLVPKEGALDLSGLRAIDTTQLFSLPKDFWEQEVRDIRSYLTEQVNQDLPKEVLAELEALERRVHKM

Structure (SMILES)	isoTOP-ABPP ratio, O14980_C34 ([1]; 500 μM, invitro, 231)	isoTOP-ABPP ratio, O14980_C34 ([1]; 500 μM, invitro, ramos)	isoTOP-ABPP ratio O75362_C286 ([2]; 500 μM, invitro, 231)	isoTOP-ABPP ratio, P68036_C86 ([3]; 500 μM, invitro, ramos)	isoTOP-ABPP ratio, P48735_C308 ([4]; 500 μM)	isoTOP-ABPP ratio, Q16822_C306 [6]; 231	isoTOP-ABPP ratio, Q16822_C306 ([6]; ramos)	isoTOP-ABPP ratio, Q9UPT9_C171 ([5]; 500 μM, invitro, ramos)	other results
COc1ccc2c(c1)CCCN2C(=O)CCl [compound 2]	–	–	–	–	–	–	–	–	R value (DMSO/fragment) ([1]; 500 μM, in vitro, MDA-MB-231): 2.8; R value (DMSO/fragment) ([1]; 500 μM, invitro, ramos): 4.6; R value (DMSO/fragment) ([2]; 500 μM, in vitro, MDA-MB-231): 20.0; R value (DMSO/fragment) ([2]; 500 μM, invitro, ramos): 20.0; R value (DMSO/fragment) ([3]; 500 μM, in vitro, MDA-MB-231): 2.8; R value (DMSO/fragment) ([3]; 500 μM, invitro, ramos): 2.5; R value (DMSO/fragment) ([4]; 500 μM): 1.4; R value (DMSO/fragment) ([5]; 500 μM, invitro, ramos): 7.1
COc1ccc(C2CC(c3cccs3)=NN2C(=O)CCl)cc1 (centres unmarked) [compound 4]	–	–	–	–	–	–	–	–	R value (DMSO/fragment) ([1]; 250 μM, in vitro, MDA-MB-231): 1.0; R value (DMSO/fragment) ([1]; 250 μM, in vitro, Ramos): 0.2; R value (DMSO/fragment) ([2]; 250 μM, in vitro, MDA-MB-231): 1.7; R value (DMSO/fragment) ([3]; 250 μM, in vitro, MDA-MB-231): 1.2; R value (DMSO/fragment) ([4]; 250 μM): 0.7; R value (DMSO/fragment) ([6]; 250 μM, in vitro, MDA-MB-231): 2.2; R value (DMSO/fragment) ([5]; 250 μM, in vitro, Ramos): 4.0
O=C(CCl)N1CCN(S(=O)(=O)c2ccccc2F)CC1 [compound 10]	1.2	0.7	1.1	0.4	1.1	1.9	1.1	3.8	isoTOP-ABPP ratio, P68036_C86 ([3]; 500 μM, invitro, 231): 1.1
Cn1cc(S(=O)(=O)N2CCOCC2)cc1C(=O)NC(=O)CCl [compound 11]	1.2	1.0	1.2	1.0	1.1	3.2	1.2	8.2	isoTOP-ABPP ratio O75362_C286 ([2]; 500 μM, invitro, ramos): 1.2
O=C(CCl)NC(=O)NC12CC3CC(CC(C3)C1)C2 [compound 12]	1.2	0.7	1.0	–	1.7	1.5	0.7	4.1	–
O=C(CCl)NCCc1c[nH]c2ccccc12 [compound 13]	0.9	0.7	0.9	0.8	1.1	0.9	1.0	0.8	isoTOP-ABPP ratio O75362_C286 ([2]; 500 μM, invitro, ramos): 0.9; isoTOP-ABPP ratio, P68036_C86 ([3]; 500 μM, invitro, 231): 1.1
O=C(CCl)N1CCC(C(O)(c2ccccc2)c2ccccc2)CC1 [compound 20]	–	–	–	–	–	–	–	–	isoTOP-ABPP ratio (reactivity profile), O14980_C34 ([1]; 500 μm in-vitro ramos): 1.2; isoTOP-ABPP ratio (reactivity profile), O14980_C34 ([1]; 500 μm in-vitro ramos_231): 1.0; isoTOP-ABPP ratio (reactivity profile), O75362_C286 ([2]; 500 μm in-vitro ramos_231): 1.3; isoTOP-ABPP ratio (reactivity profile), P68036_C86 ([3]; 500 μm in-vitro ramos): 1.2; isoTOP-ABPP ratio (reactivity profile), P68036_C86 ([3]; 500 μm in-vitro ramos_231): 1.1; isoTOP-ABPP ratio (reactivity profile), P48735_C308 ([4]; 500 μm in-vitro ramos_231): 0.5; isoTOP-ABPP ratio (reactivity profile), Q16822_C306 ([6]; 500 μm in-vitro ramos): 1.6; isoTOP-ABPP ratio (reactivity profile), Q16822_C306 ([6]; 500 μm in-vitro ramos_231): 2.5; isoTOP-ABPP ratio (reactivity profile), Q9UPT9_C171 ([5]; 500 μm in-vitro ramos): 20.0
